# In patent US6403617B1, “Diaminopyridine-containing thiourea inhibitors of herpes viruses” (American Home Products Corp., priority 1998, dated 2002):
# Key:
# VZV strain Ellen = test: VZV Antiviral (ELISA) Assay; format: cell-based, varicella-zoster virus; details: human foreskin fibroblast cells, three days
# Protocol: For the generation of stock VZV to be used in the assay, VZV strain Ellen (ATCC #VR-1367) is used to infect human foreskin fibroblast (HFF) cells at low multiplicity (less than 0.1) and incubated overnight at 37° C. in 5% CO2. After the overnight incubation, the mixture of uninfected and VZV-infected HFF infected cells are then harvested and added to each well of 96-well plates (3.5×10^4 cells in 100 μl DMEM supplemented with 2% FBS) which contain test compound or the reference standard drug control (in 100 μl DMEM supplemented with 2% FBS per well). These cells are incubated for three days at 37° C. in 5% CO2, then fixed for ELISA assay. The primary antibody is murine anti-VZV glycoprotein II monoclonal antibody (Applied Biosystems, Inc. #13-145-100) and the secondary antibody is goat anti-mouse IgG linked to β-galactosidase. Thus the extent of viral replication is determined by assessing β-galactosidase activity by quantifying the generation of the 4-methyl umbelliferone fluorescent cleavage product after addition of the methyl umbelliferyl-β-D-galactoside (Sigma #M1633) substrate on a microfluorimeter (365 nm for excitation and 450 nm for emission). Antiviral activity (IC50) of the test compound is determined by comparing the flourescence obtained in absence of compound to that obtained in the presence of compound.
# HCMV wild-type = test: HCMV yield assay; format: cell-based, Human Cytomegalovirus; details: human foreskin fibroblasts, reduction of virus yield by 50%
# Protocol: Yield assay. Monolayer cultures of human foreskin fibroblasts are infected with HCMV wild-type, typically at a multiplicity of infection equal to 0.2, in the presence of inhibitor compound (varying concentrations). At three days post-infection, total virus produced in these cultures (i.e. virus yield) is assessed by harvesting and titering the virus in 12-well plates of cultured human foreskin fibroblasts (done in the absence of inhibitor). Plaques are quantified at 2 weeks post-infection. An inhibitor of HCMV is identified by the reduction in titer of virus yield in the presence, compared to the titer in the absence of compound. In this assay, the relative anti-HCMV activity of an inhibitor is typically determined by calculating the IC50 or IC90 value, that is, the amount of compound required to reduce the virus yield by 50% or 90%, respectively. Table I describes IC50 data for compounds tested against HCMV.
# HSV-1 = test: HSV Antiviral (ELISA) Assay; format: cell-based, herpes simplex virus type 1; details: Vero cells, HSV-1, about 24 hours post-infection
# Protocol: Vero cells (ATCC #CCL-81) are plated on 96-well tissue cultugre plates at 3.5×10^4 cells per 100 μl tissue culture DMEM (Dulbecco's modified Eagle media) supplemented with 2% fetal bovine serum (FBS) in each well. After overnight incubation @ 37° C. (in 5% CO2) and 30 minutes prior to infection with HSV-1 (multiplicity of infection equal to 0.006), cells are either untreated, or treated with test compound (multiple concentrations) or reference standard drug control. After approximately 24 hours post-infection incubation @ 37° C. (in 5% CO2), cells are fixed for ELISA assay. The primary antibody is murine anti-HSV glycoprotein D monoclonal primary antibody and the secondary antibody is goat anti-mouse IgG linked to β-galactosidase. Thus the extent of viral replication is determined by assessing β-galactosidase activity by quantifying the generation of the 4-methyl umbelliferone fluorescent cleavage product after addition of the methyl umbelliferyl-β-D-galactoside (Sigma #M1633) substrate on a microfluorimeter (365 nm for excitation and 450 nm for emission). Antiviral activity (IC50) of the test compound is determined by comparing the flourescence obtained in absence of compound to that obtained in the presence of compound.
molecule,measurement,setting,value
"O=C(Nc1ccc(NC(=S)Nc2cc(Cl)cc(Cl)c2)cn1)c1csnn1 [Example 515, [1,2,3]Thiadiazole-4-carboxylic acid {5-[3-(3,5-dichloro-phenyl)-thioureido]-pyridin-2-yl}-amide]",inhibition at 10 µg/mL,"VZV strain Ellen; Human alphaherpesvirus 3, 72 h, read-out: % inhibition 10 ug/ml VZV, 10 ug/ml",30%
same,IC50,"VZV strain Ellen; Human alphaherpesvirus 3, 72 h, read-out: IC50 (ug/ml) VZV",> 10 µg/mL
same,IC50,"HCMV wild-type; Human betaherpesvirus 5, Fibroblast, read-out: IC50 (ug/ml) HCMV",> 10 µg/mL
same,IC50,"HSV-1; Human alphaherpesvirus 1, read-out: IC50 (ug/ml) HSV",> 10 µg/mL
"Pyridine-2-carboxylic acid {6-[3-(5-chloro-2,4-dimethoxy-phenyl)-thioureido]-pyridin-3-yl}-amide [Example 506]",% inhibition 10 ug/ml VZV,VZV strain Ellen; 10 ug/ml,68%
same,IC50 (ug/ml) VZV,VZV strain Ellen,>10 µg/mL
same,IC50 (ug/ml) HCMV,HCMV wild-type,>10 µg/mL
same,IC50 (ug/ml) HSV,HSV-1,>10 µg/mL
